According to patent US20250163104A1, “MACROCYCLIC IMMUNOMODULATORS” (priority 2021, published 2025):
pIC50: −log10 of the molar value. Where a SMILES comes first, the peptide text is derived from it. Bridges are numbered along the chain shown (N, C = ends). [ ]: non-standard residue; d: D form. The star is where a group is joined. Ala(1H-tetrazol-5-yl) = N[C@@H](Cc1nnn[nH]1)C(=O)O; Phe(4-COOH) = N[C@@H](Cc1ccc(C(=O)O)cc1)C(=O)O; Bip = N[C@@H](Cc1ccc(-c2ccccc2)cc1)C(=O)O; Phe(3-Me) = Cc1cccc(C[C@H](N)C(=O)O)c1; 4Pal = N[C@@H](Cc1ccncc1)C(=O)O; Carboxymethyl = O=C(O)C*; Orn = NCCC[C@H](N)C(=O)O; Dab = NCC[C@H](N)C(=O)O; Dap = NC[C@H](N)C(=O)O

Biological target: T1, human PD-1 / PD-L1-Ig binding on Jurkat cell line over-expressing human PD-1 (Jurkat-PD-1) (Homo sapiens, UniProt Q15116)
T1 construct: expressed in transfected cells; host or cells: Jurkat
T1 sequence (Q15116 25-288): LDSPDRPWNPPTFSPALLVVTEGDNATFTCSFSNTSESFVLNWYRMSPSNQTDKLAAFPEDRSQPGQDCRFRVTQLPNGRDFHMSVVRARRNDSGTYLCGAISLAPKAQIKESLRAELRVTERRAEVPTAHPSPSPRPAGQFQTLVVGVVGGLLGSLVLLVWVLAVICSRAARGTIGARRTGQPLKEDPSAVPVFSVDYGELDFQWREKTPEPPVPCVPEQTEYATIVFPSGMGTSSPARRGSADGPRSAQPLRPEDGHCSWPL
Experiment: Jurkat-PD-1 Cell Binding High-Content Screening Assay (CBA)
Type: cell-based
Settings: Jurkat HPD1_PDL1 IC50, Jurkat-PD-1 cells, PE-labeled PD-L1-Ig 20 nM final
Method in brief: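 Compounds were preincubated with Jurkat-hPD-1 cells in DMEM plus 10% fetal calf serum for 2 h at 37° C. Phycoerythrin-labeled PD-L1-Ig (20 nM final) was then added for 1 hour. Cells were fixed in 4% paraformaldehyde with Hoechst 33342, and bound fluorescence was quantified by high-content imaging.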

| Structure (SMILES) | pIC50 |
| --- | --- |
| CC(C)C[C@@H]1NC(=O)[C@H](Cc2c[nH]c3ccccc23)NC(=O)[C@H](CC(=O)O)NC(=O)[C@H](Cc2ccc(OCC(=O)O)cc2)NC(=O)[C@H](CN)NC(=O)CSC[C@@H](C(=O)NCC(N)=O)NC(=O)[C@H](CO)NC(=O)[C@H](C(C)C)NC(=O)[C@H](CC(C)C)NC(=O)[C@H](CC(N)=O)NC(=O)[C@@H](CC(C)C)NC(=O)[C@H](CN)NC(=O)[C@H](C(C)C)NC(=O)[C@H](Cc2ccc(-c3ccccc3)cc2)NC1=O [Compound 1276] ({CH2CO}-[Dap]Y(Carboxymethyl)DWL[Bip]V[Dap][dL]NLVSCG-NH2; thioether N-14) | 8.09 |
| CC(C)C[C@@H]1NC(=O)[C@H](Cc2c[nH]c3ccccc23)NC(=O)[C@H](CC(=O)O)NC(=O)[C@H](Cc2ccc(OCC(=O)O)cc2)NC(=O)[C@H](CN)NC(=O)CSC[C@@H](C(=O)NCC(N)=O)NC(=O)[C@H](CO)NC(=O)[C@H](C(C)C)NC(=O)[C@H](CC(C)C)NC(=O)[C@H](CC(N)=O)NC(=O)[C@@H](CC(C)C)NC(=O)[C@H](CCN)NC(=O)[C@H](C(C)C)NC(=O)[C@H](Cc2ccc(-c3ccccc3)cc2)NC1=O [Compound 1280] ({CH2CO}-[Dap]Y(Carboxymethyl)DWL[Bip]V[Dab][dL]NLVSCG-NH2; thioether N-14) | 8.01 |

Same assay, conditions: Jurkat-PD-1 cells, PE-labeled PD-L1-Ig 20 nM final; read-out: Jurkat HPD1_PDL1 IC50

| Structure (SMILES) | pIC50 |
| --- | --- |
| CC(C)C[C@@H]1NC(=O)[C@H](CCN)NC(=O)[C@@H](CC(C)C)NC(=O)[C@H](CCN)NC(=O)[C@H](CCC(=O)O)NC(=O)[C@H](Cc2ccc(-c3ccccc3)cc2)NC(=O)[C@H](C(C)C)NC(=O)[C@H](Cc2c[nH]c3ccccc23)NC(=O)[C@H](CC(=O)O)NC(=O)[C@H](Cc2ccc(OCC(=O)O)cc2)NC(=O)[C@H](Cc2ccncc2)NC(=O)CSC[C@@H](C(=O)N[C@@H](C)C(N)=O)NC(=O)[C@H](CO)NC(=O)[C@H](C(C)C)NC1=O [Compound 1266] ({CH2CO}-[4Pal]Y(Carboxymethyl)DWV[Bip]E[Dab][dL][Dab]LVSCA-NH2; thioether N-14) | 7.53 |
| CC(C)C[C@@H]1NC(=O)[C@H](CCN)NC(=O)[C@@H](CC(C)C)NC(=O)[C@H](CCN)NC(=O)[C@H](CCC(=O)O)NC(=O)[C@H](Cc2ccc(-c3ccccc3)cc2)NC(=O)[C@H](C(C)C)NC(=O)[C@H](Cc2c[nH]c3ccccc23)NC(=O)[C@H](CC(=O)O)NC(=O)[C@H](Cc2ccncc2)NC(=O)[C@H](CN)NC(=O)CSC[C@@H](C(=O)N[C@@H](C)C(N)=O)NC(=O)[C@H](CO)NC(=O)[C@H](C(C)C)NC1=O [Compound 1267] ({CH2CO}-[Dap][4Pal]DWV[Bip]E[Dab][dL][Dab]LVSCA-NH2; thioether N-14) | 7.00 |
| CC(C)C[C@@H]1NC(=O)[C@H](CCN)NC(=O)[C@@H](CC(C)C)NC(=O)[C@H](CCN)NC(=O)[C@H](CCC(=O)O)NC(=O)[C@H](Cc2ccc(-c3ccccc3)cc2)NC(=O)[C@H](C(C)C)NC(=O)[C@H](Cc2c[nH]c3ccccc23)NC(=O)[C@H](CC(=O)O)NC(=O)[C@H](Cc2ccc(OCC(=O)O)cc2)NC(=O)[C@H](Cc2ccc(OCC(=O)O)cc2)NC(=O)CSC[C@@H](C(=O)N[C@@H](C)C(N)=O)NC(=O)[C@H](CO)NC(=O)[C@H](C(C)C)NC1=O [Compound 1268] ({CH2CO}-Y(Carboxymethyl)Y(Carboxymethyl)DWV[Bip]E[Dab][dL][Dab]LVSCA-NH2; thioether N-14) | 7.61 |
| CC(C)C[C@@H]1NC(=O)[C@H](CCN)NC(=O)[C@@H](CC(C)C)NC(=O)[C@H](CCN)NC(=O)[C@H](CCC(=O)O)NC(=O)[C@H](Cc2ccc(-c3ccccc3)cc2)NC(=O)[C@H](C(C)C)NC(=O)[C@H](Cc2c[nH]c3ccccc23)NC(=O)[C@H](CC(=O)O)NC(=O)[C@H](Cc2ccc(C(=O)O)cc2)NC(=O)[C@H](Cc2ccc(OCC(=O)O)cc2)NC(=O)CSC[C@@H](C(=O)N[C@@H](C)C(N)=O)NC(=O)[C@H](CO)NC(=O)[C@H](C(C)C)NC1=O [Compound 1269] ({CH2CO}-Y(Carboxymethyl)[Phe(4-COOH)]DWV[Bip]E[Dab][dL][Dab]LVSCA-NH2; thioether N-14) | 7.39 |
| Cc1cccc(C[C@@H]2NC(=O)[C@H](Cc3nn[nH]n3)NC(=O)[C@H](Cc3ccc(OCC(=O)O)cc3)NC(=O)[C@H](CN)NC(=O)CSC[C@@H](C(=O)NCC(N)=O)NC(=O)[C@H](CO)NC(=O)[C@H](C(C)C)NC(=O)[C@H](CC(C)C)NC(=O)[C@H](CC(N)=O)NC(=O)[C@@H](CC(C)C)NC(=O)[C@H](CN)NC(=O)[C@H](C(C)C)NC(=O)[C@H](Cc3ccc(-c4ccccc4)cc3)NC(=O)[C@H](CC(C)C)NC2=O)c1 [Compound 1273] ({CH2CO}-[Dap]Y(Carboxymethyl)[Ala(1H-tetrazol-5-yl)][Phe(3-Me)]L[Bip]V[Dap][dL]NLVSCG-NH2; thioether N-14) | 7.26 |
| CC(C)C[C@@H]1NC(=O)[C@H](Cc2c[nH]c3ccccc23)NC(=O)[C@H](CC(=O)O)NC(=O)[C@H](Cc2ccc(O)cc2)NC(=O)[C@H](Cc2ccccc2)NC(=O)CSC[C@@H](C(=O)NCC(N)=O)NC(=O)[C@H](CO)NC(=O)[C@H](C(C)C)NC(=O)[C@H](CC(C)C)NC(=O)[C@H](CC(N)=O)NC(=O)[C@@H](CC(C)C)NC(=O)[C@H](CN)NC(=O)[C@H](C(C)C)NC(=O)[C@H](Cc2ccc(-c3ccccc3)cc2)NC1=O [Compound 1274] ({CH2CO}-FYDWL[Bip]V[Dap][dL]NLVSCG-NH2; thioether N-14) | 7.42 |
| CC(C)C[C@@H]1NC(=O)[C@H](Cc2c[nH]c3ccccc23)NC(=O)[C@H](CC(=O)O)NC(=O)[C@H](Cc2ccncc2)NC(=O)[C@H](Cc2ccc(OCC(=O)O)cc2)NC(=O)CSC[C@@H](C(=O)NCC(N)=O)NC(=O)[C@H](CO)NC(=O)[C@H](C(C)C)NC(=O)[C@H](CC(C)C)NC(=O)[C@H](CC(N)=O)NC(=O)[C@@H](CC(C)C)NC(=O)[C@H](CN)NC(=O)[C@H](C(C)C)NC(=O)[C@H](Cc2ccc(-c3ccccc3)cc2)NC1=O [Compound 1278] ({CH2CO}-Y(Carboxymethyl)[4Pal]DWL[Bip]V[Dap][dL]NLVSCG-NH2; thioether N-14) | 7.56 |

The remaining lines, values ahead:

| pIC50 | Structure (SMILES) |
| --- | --- |
| 7.86 | CC(C)C[C@@H]1NC(=O)[C@H](Cc2c[nH]c3ccccc23)NC(=O)[C@H](CC(=O)O)NC(=O)[C@H](Cc2ccc(C(=O)O)cc2)NC(=O)[C@H](Cc2ccc(OCC(=O)O)cc2)NC(=O)CSC[C@@H](C(=O)NCC(N)=O)NC(=O)[C@H](CO)NC(=O)[C@H](C(C)C)NC(=O)[C@H](CC(C)C)NC(=O)[C@H](CC(N)=O)NC(=O)[C@@H](CC(C)C)NC(=O)[C@H](CN)NC(=O)[C@H](C(C)C)NC(=O)[C@H](Cc2ccc(-c3ccccc3)cc2)NC1=O [Compound 1275] ({CH2CO}-Y(Carboxymethyl)[Phe(4-COOH)]DWL[Bip]V[Dap][dL]NLVSCG-NH2; thioether N-14) |
| 8.07 | CC(C)C[C@@H]1NC(=O)[C@H](Cc2c[nH]c3ccccc23)NC(=O)[C@H](CC(=O)O)NC(=O)[C@H](Cc2ccncc2)NC(=O)[C@H](CN)NC(=O)CSC[C@@H](C(=O)NCC(N)=O)NC(=O)[C@H](CO)NC(=O)[C@H](C(C)C)NC(=O)[C@H](CC(C)C)NC(=O)[C@H](CC(N)=O)NC(=O)[C@@H](CC(C)C)NC(=O)[C@H](CN)NC(=O)[C@H](C(C)C)NC(=O)[C@H](Cc2ccc(-c3ccccc3)cc2)NC1=O [Compound 1277] ({CH2CO}-[Dap][4Pal]DWL[Bip]V[Dap][dL]NLVSCG-NH2; thioether N-14) |
| 7.87 | CC(C)C[C@@H]1NC(=O)[C@H](Cc2c[nH]c3ccccc23)NC(=O)[C@H](CC(=O)O)NC(=O)[C@H](Cc2ccc(C(=O)O)cc2)NC(=O)[C@H](Cc2ccc(OCC(=O)O)cc2)NC(=O)CSC[C@@H](C(=O)NCC(N)=O)NC(=O)[C@H](CO)NC(=O)[C@H](C(C)C)NC(=O)[C@H](CC(C)C)NC(=O)[C@H](CC(N)=O)NC(=O)[C@@H](CC(C)C)NC(=O)[C@H](CCN)NC(=O)[C@H](C(C)C)NC(=O)[C@H](Cc2ccc(-c3ccccc3)cc2)NC1=O [Compound 1279] ({CH2CO}-Y(Carboxymethyl)[Phe(4-COOH)]DWL[Bip]V[Dab][dL]NLVSCG-NH2; thioether N-14) |
| 8.05 | CC(C)C[C@@H]1NC(=O)[C@H](Cc2c[nH]c3ccccc23)NC(=O)[C@H](CC(=O)O)NC(=O)[C@H](Cc2ccncc2)NC(=O)[C@H](CN)NC(=O)CSC[C@@H](C(=O)NCC(N)=O)NC(=O)[C@H](CO)NC(=O)[C@H](C(C)C)NC(=O)[C@H](CC(C)C)NC(=O)[C@H](CC(N)=O)NC(=O)[C@@H](CC(C)C)NC(=O)[C@H](CCN)NC(=O)[C@H](C(C)C)NC(=O)[C@H](Cc2ccc(-c3ccccc3)cc2)NC1=O [Compound 1281] ({CH2CO}-[Dap][4Pal]DWL[Bip]V[Dab][dL]NLVSCG-NH2; thioether N-14) |
| 7.93 | CC(C)C[C@@H]1NC(=O)[C@H](Cc2c[nH]c3ccccc23)NC(=O)[C@H](CC(=O)O)NC(=O)[C@H](Cc2ccncc2)NC(=O)[C@H](Cc2ccc(OCC(=O)O)cc2)NC(=O)CSC[C@@H](C(=O)NCC(N)=O)NC(=O)[C@H](CO)NC(=O)[C@H](C(C)C)NC(=O)[C@H](CC(C)C)NC(=O)[C@H](CC(N)=O)NC(=O)[C@@H](CC(C)C)NC(=O)[C@H](CCN)NC(=O)[C@H](C(C)C)NC(=O)[C@H](Cc2ccc(-c3ccccc3)cc2)NC1=O [Compound 1282] ({CH2CO}-Y(Carboxymethyl)[4Pal]DWL[Bip]V[Dab][dL]NLVSCG-NH2; thioether N-14) |
| 7.61 | CC(C)C[C@@H]1NC(=O)[C@H](Cc2c[nH]c3ccccc23)NC(=O)[C@H](CC(=O)O)NC(=O)[C@H](Cc2ccc(C(=O)O)cc2)NC(=O)[C@H](Cc2ccc(OCC(=O)O)cc2)NC(=O)CSC[C@@H](C(=O)NCC(N)=O)NC(=O)[C@H](CO)NC(=O)[C@H](C(C)C)NC(=O)[C@H](CC(C)C)NC(=O)[C@H](CC(N)=O)NC(=O)[C@@H](CC(C)C)NC(=O)[C@H](CCCN)NC(=O)[C@H](C(C)C)NC(=O)[C@H](Cc2ccc(-c3ccccc3)cc2)NC1=O [Compound 1283] ({CH2CO}-Y(Carboxymethyl)[Phe(4-COOH)]DWL[Bip]V[Orn][dL]NLVSCG-NH2; thioether N-14) |
